These are literature values, as cited in US20200138880A1, “BACTERIA-BASED GEL COMPOSITIONS FOR TOPICAL APPLICATIONS AND USES THEREOF” (PROBIOTICAL S.P.A., priority 2016, published 2020).

The conditions of this data set: well known; free melatonin not bound to globulins.

As to `COc1ccc2[nH]cc(CCNC(C)=O)c2c1` [melatonin], the “melatonin concentration in saliva as share of its plasma levels” value is listed as 24%-33%.
